# According to patent publication US8202865B2, “Oxadiazole derivatives” (Merck Serono SA, priority 2007, dated 2012):
# Structures can show the parent of a compound that is named as a salt.
# Target: T1, S1P1 (Homo sapiens, UniProt P21453)
# T1 construct: expressed in transfected cells; host or cells: CHO cells (membranes)
# Assay: 35S-GTPγS binding, S1P1 membranes
# Type: biochemical
# Conditions: membranes from CHO cells expressing S1P1; 60 min 30° C.
# Procedure: Receptor binding assay: Membranes were prepared from CHO cells expressing S1P1 or S1P3 for use in ligand and […] binding studies. Cells were suspended in 50 mM TRIS, pH 7.4, 2 mM EDTA, 250 mM Sucrose (buffer A) and 1× Complete protease inhibitor cocktail (Roche), and disrupted at 4° C. by N2 decompression using a cell disruption bomb (Parr Instrument). Following centrifugation at 1000 RPM for 10 min at 4° C., the supernatant was suspended in buffer A and centrifuged again at 19000 RPM for 60 min at 4° C. The pellet was then suspended in 10 mM HEPES, pH 7.4, 1 mM EDTA, 250 mM Sucrose (Buffer B), and 1× Complete EDTA-free protease inhibitor cocktail and homogenized using a potter. Membranes were flash frozen in liquid N2 and stored at −80° C. [33P]sphingosine 1-phosphate (3000 Ci/mmol; American Radiolabeled Chemicals, Inc.) was added to test compounds in DMSO. Membranes and WGA SPA beads (GE Healthcare) were added to give a final volume of 100 μl in 96-well plates with assay concentrations of 25 pM or 10 pM [33P]sphingosine 1-phosphate (respectively for S1P1 or S1P3), 50 mM HEPES, pH 7.5, 5 mM MgCl2, 100 mM NaCl, 0.4% fatty acid-free BSA, 1-5 μg/well of proteins and 100 μg/well of WGA SPA beads. Binding was performed for 60 min at RT on a shaker and bound radioactivity was measured on a PerkinElmer 1450 MicroBeta counter. Specific binding was calculated by subtracting remaining radioactivity in the presence of 1000-fold excess of unlabeled S1P. Binding data were analyzed using the GraphPad Prism program.
# Measurements of ^35S-GTPγS Binding: Membranes (1 to 10 μg protein) prepared as described above, were incubated in 96-well Scintiplates (PerkinElmer) with test compounds diluted in DMSO, in 180 μl of 20 mM HEPES, pH 7.4, 10 mM MgCl2, 2 μg/well Saponin, 0.2% fatty acid free BSA (Assay buffer), 140 mM NaCl and 1.7 μM GDP. The assay was initiated with the addition of 20 μl of 1.5 nM [35S]-GTPγS (1100 Ci/mmol; GE Healthcare) in assay buffer. After 60 min incubation at 30° C. on a shaker, plates were centrifuged for 10 min at 2000 RPM. Supernatant was discarded and membrane bound radioactivity was measured on a PerkinElmer 1450 MicroBeta counter. Triplicate samples were averaged and expressed as % response relative to S1P activation in absence of compound (n=2).
# T1 sequence (P21453 whole entry, species assumed): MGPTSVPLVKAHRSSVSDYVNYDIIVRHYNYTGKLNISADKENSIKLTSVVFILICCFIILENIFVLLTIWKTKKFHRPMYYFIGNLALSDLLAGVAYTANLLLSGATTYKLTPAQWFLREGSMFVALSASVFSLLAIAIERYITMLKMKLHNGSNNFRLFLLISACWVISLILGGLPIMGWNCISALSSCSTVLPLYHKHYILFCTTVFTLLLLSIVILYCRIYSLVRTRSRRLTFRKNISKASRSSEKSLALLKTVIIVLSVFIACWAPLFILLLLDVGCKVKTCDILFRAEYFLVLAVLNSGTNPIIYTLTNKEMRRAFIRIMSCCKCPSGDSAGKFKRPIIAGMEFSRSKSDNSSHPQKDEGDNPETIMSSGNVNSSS
row,Compound,EC50
1,"COC(=O)c1ccc(-c2noc(-c3ccc(N(C)C)c(NS(C)(=O)=O)c3)n2)cc1F [Example 71, methyl 4-(5-{4-(dimethylamino)-3-[(methylsulfonyl)amino]phenyl}-1,2,4-oxadiazol-3-yl)-2-fluorobenzoate]",481 nM
2,"CCC(=O)Nc1cc(-c2nc(-c3ccc(C(=O)O)c(F)c3)no2)ccc1N1CCCCC1C (stereo not drawn) [Example 72, 2-fluoro-4-{5-[4-(2-methylpiperidin-1-yl)-3-(propionylamino)phenyl]-1,2,4-oxadiazol-3-yl}benzoic acid]",8510 nM
3,"Cc1ccccc1-c1ccc(-c2nc(-c3ccc(C(=O)O)c(F)c3)no2)cc1CN1CCCC1 [Example 76, 2-fluoro-4-{5-[2′-methyl-2-(pyrrolidin-1-ylmethyl)biphenyl-4-yl]-1,2,4-oxadiazol-3-yl}benzoic acid, Hydrochloride salt]",772 nM
4,"CNCc1cc(-c2nc(-c3ccc(C(=O)O)c(F)c3)no2)ccc1-c1ccccc1C [Example 77, 2-fluoro-4-(5-{2′-methyl-2-[(methylamino)methyl]biphenyl-4-yl}-1,2,4-oxadiazol-3-yl)benzoic acid, Hydrochloride salt]",2900 nM
5,"CCc1ccccc1-c1ccc(-c2nc(-c3ccc(C(=O)OC)c(F)c3)no2)cc1COC [Example 80, methyl 4-{5-[2′-ethyl-2-(methoxymethyl)biphenyl-4-yl]-1,2,4-oxadiazol-3-yl}-2-fluorobenzoate]",274 nM
6,"COCc1cc(-c2nc(-c3ccc(C(=O)O)c(F)c3)no2)ccc1-c1cccc(OC)c1OC [Example 82, 4-{5-[2′,3′-dimethoxy-2-(methoxymethyl)biphenyl-4-yl]-1,2,4-oxadiazol-3-yl}-2-fluorobenzoic acid]",1580 nM
7,"Cc1ccccc1-c1ccc(-c2nc(-c3ccc(C(=O)O)c(F)c3)no2)cc1S(C)(=O)=O [Example 83, 2-fluoro-4-{5-[2′-methyl-2-(methylsulfonyl)biphenyl-4-yl]-1,2,4-oxadiazol-3-yl}benzoic acid]",3990 nM
8,"COCc1ccccc1-c1ccc(-c2nc(-c3ccc(C(=O)O)c(F)c3)no2)cc1C [Example 87, 2-fluoro-4-{5-[2′-(methoxymethyl)-2-methylbiphenyl-4-yl]-1,2,4-oxadiazol-3-yl}benzoic acid]",2010 nM
9,"Cc1ccccc1-c1ccc(-c2nc(-c3ccc(C(=O)O)c(Cl)c3)no2)cc1CS(C)(=O)=O [Example 88, 2-chloro-4-(5-{2′-methyl-2-[(methylsulfonyl)methyl]biphenyl-4-yl}-1,2,4-oxadiazol-3-yl)benzoic acid]",4640 nM
10,"COCc1cc(-c2nc(-c3ccc(C(=O)O)c(F)c3)no2)ccc1-c1cc(F)ccc1OC [Example 89, 2-fluoro-4-{5-[5′-fluoro-2′-methoxy-2-(methoxymethyl)biphenyl-4-yl]-1,2,4-oxadiazol-3-yl}benzoic acid]",460 nM
11,"CCOc1ccccc1-c1ccc(-c2nc(-c3ccc(C(=O)O)c(F)c3)no2)cc1COC [Example 90, 4-{5-[2′-ethoxy-2-(methoxymethyl)biphenyl-4-yl]-1,2,4-oxadiazol-3-yl}-2-fluorobenzoic acid]",479 nM
12,"COCc1cc(-c2nc(-c3ccc(C(=O)O)c(F)c3)no2)ccc1-c1cc(F)ccc1F [Example 91, 4-{5-[2′,5′-difluoro-2-(methoxymethyl)biphenyl-4-yl]-1,2,4-oxadiazol-3-yl}-2-fluorobenzoic acid]",410 nM
13,"COCc1cc(-c2nc(-c3ccc(C(=O)O)c(F)c3)no2)ccc1-c1ccc(F)cc1C [Example 94, 2-fluoro-4-{5-[4′-fluoro-2-(methoxymethyl)-2′-methylbiphenyl-4-yl]-1,2,4-oxadiazol-3-yl}benzoic acid]",513 nM
14,"COCC#Cc1cc(-c2nc(-c3ccc(C(=O)O)c(F)c3)no2)ccc1-c1ccccc1C [Example 96, 2-fluoro-4-{5-[2-(3-methoxyprop-1-yn-1-yl)-2′-methylbiphenyl-4-yl]-1,2,4-oxadiazol-3-yl}benzoic acid]",462 nM
15,"Cc1ccccc1-c1ccc(-c2nc(-c3ccc(C(=O)O)c(F)c3)no2)cc1O [Example 99, 2-fluoro-4-[5-(2-hydroxy-2′-methylbiphenyl-4-yl)-1,2,4-oxadiazol-3-yl]benzoic acid]",7700 nM
16,"COCCCc1cc(-c2nc(-c3ccc(C(=O)O)c(F)c3)no2)ccc1-c1ccccc1C [Example 100, 2-fluoro-4-{5-[2-(3-methoxypropyl)-2′-methylbiphenyl-4-yl]-1,2,4-oxadiazol-3-yl}benzoic acid]",538 nM
17,"Cc1ccccc1-c1ccc(-c2nc(-c3ccc(C(=O)O)c(F)c3)no2)cc1OCC(C)C [Example 104, 2-fluoro-4-[5-(2-isobutoxy-2′-methylbiphenyl-4-yl)-1,2,4-oxadiazol-3-yl]benzoic acid]",800 nM
18,"COCc1cc(-c2nc(-c3ccc(C(=O)O)c(F)c3)no2)ccc1OC(C)C [Example 111, 2-fluoro-4-{5-[4-isopropoxy-3-(methoxymethyl)phenyl]-1,2,4-oxadiazol-3-yl}benzoic acid]",610 nM
19,"COCc1cc(-c2nc(-c3ccc(C(=O)OC)c(F)c3)no2)ccc1N1CCCCC1C (stereo not drawn) [Example 113, methyl 2-fluoro-4-{5-[3-(methoxymethyl)-4-(2-methylpiperidin-1-yl)phenyl]-1,2,4-oxadiazol-3-yl}benzoate]",485 nM

# Molecules with a lower EC50, results first:
row,EC50,Compound
1,67 nM,"COCc1cc(-c2nc(-c3ccc(C(=O)O)c(F)c3)no2)ccc1-c1ccccc1Cl [Example 98, 4-{5-[2′-chloro-2-(methoxymethyl)biphenyl-4-yl]-1,2,4-oxadiazol-3-yl}-2-fluorobenzoic acid]"
2,233 nM,"Cc1ccccc1-c1ccc(-c2nc(-c3ccc(C(=O)O)c(F)c3)no2)cc1OC(C)C [Example 101, 2-fluoro-4-[5-(2-isopropoxy-2′-methylbiphenyl-4-yl)-1,2,4-oxadiazol-3-yl]benzoic acid]"
3,257 nM,"COCCOc1cc(-c2nc(-c3ccc(C(=O)O)c(F)c3)no2)ccc1-c1ccccc1C [Example 103, 2-fluoro-4-{5-[2-(2-methoxyethoxy)-2′-methylbiphenyl-4-yl]-1,2,4-oxadiazol-3-yl}benzoic acid]"
4,103 nM,"Cc1ccccc1-c1ccc(-c2nc(-c3ccc(C(=O)O)c(F)c3)no2)cc1OCC1CC1 [Example 105, 4-{5-[2-(cyclopropylmethoxy)-2′-methylbiphenyl-4-yl]-1,2,4-oxadiazol-3-yl}-2-fluorobenzoic acid]"
5,50 nM,"COCc1cc(-c2nc(-c3cc(C(=O)OC)ccc3OC)no2)ccc1-c1ccccc1C [Example 106, methyl 4-methoxy-3-{5-[2-(methoxymethyl)-2′-methylbiphenyl-4-yl]-1,2,4-oxadiazol-3-yl}benzoate]"
6,133 nM,"COCc1cc(-c2nc(-c3cc(C(=O)O)ccc3OC)no2)ccc1-c1ccccc1C [Example 107, 4-methoxy-3-{5-[2-(methoxymethyl)-2′-methylbiphenyl-4-yl]-1,2,4-oxadiazol-3-yl}benzoic acid]"
7,163 nM,"COCc1cc(-c2nc(-c3ccc(Cl)c(C(=O)O)c3)no2)ccc1-c1ccccc1C [Example 108, 2-chloro-5-{5-[2-(methoxymethyl)-2′-methylbiphenyl-4-yl]-1,2,4-oxadiazol-3-yl}benzoic acid]"
8,90 nM,"COCc1cc(-c2nc(-c3cc(Cl)c(C(=O)O)cc3F)no2)ccc1-c1ccccc1C [Example 109, 2-chloro-5-fluoro-4-{5-[2-(methoxymethyl)-2′-methylbiphenyl-4-yl]-1,2,4-oxadiazol-3-yl}benzoic acid]"
9,240 nM,"COCc1cc(-c2nc(-c3ccc(C(=O)OC)c(F)c3)no2)ccc1OC(C)C [Example 110, methyl 2-fluoro-4-{5-[4-isopropoxy-3-(methoxymethyl)phenyl]-1,2,4-oxadiazol-3-yl}benzoate]"
10,102 nM,"COCc1cc(-c2nc(-c3cc(F)c(C(=O)O)cc3OC)no2)ccc1-c1ccccc1C [Example 112, 2-fluoro-5-methoxy-4-{5-[2-(methoxymethyl)-2′-methylbiphenyl-4-yl]-1,2,4-oxadiazol-3-yl}benzoic acid]"
11,246 nM,"COCc1cc(-c2nc(-c3cc(Cl)c(C(=O)O)cc3OC)no2)ccc1-c1ccccc1C [Example 115, 2-chloro-5-methoxy-4-{5-[2-(methoxymethyl)-2′-methylbiphenyl-4-yl]-1,2,4-oxadiazol-3-yl}benzoic acid]"
